Experimental data taken from patent US20070129344A1, “Bicyclic 6-alkylidene-penem beta-lactamase inhibitors and beta-lactam antibiotic combination: a broad spectrum antibiotic” (priority 2005, published 2007).
≈ marks a conversion by molar mass, not a printed value. Read-outs that look alike come from different tables or passages of the source.

How the values were obtained:
[1] = test system: K. pn GC 2391 (pl 5.4; 5.6; 7.6; 8.7 B-lactamases); assay: MIC microbroth dilution; β-lactamase class A, A (ESBL), C; assay type: cell-based, K. pneumoniae; settings: Klebsiella pneumoniae, Cefepime alone, read-out: MIC
Experimental: (§1) The in vitro activities of the antibiotics were determined by the microbroth dilution method as recommended by the National Committee for Clinical Laboratory Standards (NCCLS). (NCCLS. 2000. Methods for Dilution Antimicrobial Susceptibility Tests for Bacteria That Grow Aerobically; Approved Standards: M7-A5, vol. 19. National Committee for Clinical Laboratory Standards, Villanova, Pa.). Mueller-Hinton II broth (MHBII)(BBL Cockeysville, Md.), was used for the testing procedure. […]. The plates were incubated for 18-22 hours at 35° C. in ambient air.

[2] = test system: S. maltophilia GC 1712 (L1); assay: MIC microbroth dilution; β-lactamase class B; assay type: cell-based; settings: Cefepime alone
Experimental: as §1

[3] = test system: K. pneumoniae GC 7635 SHV-1, KPC2; assay: MIC microbroth dilution; β-lactamase class A, A (Cb'ase); assay type: cell-based; settings: Cefepime alone
Experimental: as §1

[4] = test system: K. pneumoniae GC 2825 Act 1 + 3 additional; assay: MIC microbroth dilution; β-lactamase class A, A (ESBL), C; assay type: cell-based; settings: Cefepime alone
Experimental: as §1

[5] = test system: E. coli GC 6197 (TEM-1 + SHV-7 + CMY-2); assay: as above; assay type: cell-based; settings: Cefepime alone
Experimental: as §1

[6] = test system: K. pneumoniae GC 2826 Act 1 + 3 additional; assay: as above; assay type: cell-based; settings: Cefepime alone
Experimental: as §1

[7] = test system: E. coli GC 2149 (ACT-1; TEM-1 + pl 5.6); assay: as above; assay type: cell-based; settings: Escherichia coli, Cefepime alone, read-out: MIC
Experimental: as §1

[8] = test system: K. pneumoniae GC 7632 TEM-1 KPC-2, SHV-7, SHV-12; assay: MIC microbroth dilution; β-lactamase class A, A (Cb'ase), A (ESBL); assay type: cell-based; settings: Cefepime alone
Experimental: as §1

[9] = test system: A. baumannii GC 6660 IMI-R; assay: MIC microbroth dilution; class PBP (penicillin binding protein); assay type: cell-based; settings: Cefepime alone
Experimental: as §1

[10] = test system: A. baumannii GC 6661 IMI-R; assay: as above; assay type: cell-based; settings: Cefepime alone
Experimental: as §1

[11] = test system: A. baumannii GC 6662 IMI-R; assay: as above; assay type: cell-based; settings: Cefepime alone
Experimental: as §1

[12] = test system: E. coli GC 4971 OXA-1, TEM-1; assay: MIC microbroth dilution; β-lactamase class A, D; assay type: cell-based; settings: Escherichia coli, Cefepime alone, read-out: MIC
Experimental: as §1

E. coli GC 2920 (IRT-2) = assay: MIC microbroth dilution; β-lactamase class A (IRT); assay type: cell-based; settings: Cefepime alone
Experimental: as §1

[13] = test system: E. coli GC 2017 (TEM-10 + pl 6.3; 8.1); assay: MIC microbroth dilution; β-lactamase class A (ESBL); assay type: cell-based; settings: Cefepime alone
Experimental: as §1

E. coli GC 1995 (TEM-10) = assay: as above; assay type: cell-based; settings: Escherichia coli, Cefepime alone, read-out: MIC
Experimental: as §1

[14] = test system: S. typhimurium GC 4197 CTX-M-5; assay: as above; assay type: cell-based; settings: Cefepime alone
Experimental: as §1

E. coli GC 2300 (TEM-28) = assay: as above; assay type: cell-based; settings: Cefepime alone
Experimental: as §1

E. coli GC 2400 (TEM-43) = assay: as above; assay type: cell-based; settings: Cefepime alone
Experimental: as §1

E. coli GC 1684 (TEM-10) = assay: as above; assay type: cell-based; settings: Cefepime alone
Experimental: as §1

E. coli GC 6368 (SHV-7) = assay: as above; assay type: cell-based; settings: Escherichia coli, Cefepime alone, read-out: MIC
Experimental: as §1

E. coli GC 2804 (imp) = assay: MIC microbroth dilution; β-lactamase class none; assay type: cell-based; settings: Escherichia coli, Cefepime alone
Experimental: as §1

E. coli GC 2844 (none) = assay: MIC microbroth dilution; β-lactamase class none; assay type: cell-based; settings: Cefepime alone
Experimental: as §1

[15] = test system: E. coli ATCC 25922 (none); assay: MIC microbroth dilution; β-lactamase class none; assay type: cell-based; settings: Escherichia coli, ATCC25922, E. coli ATCC 25922, Cefepime alone, read-out: MIC
Experimental: as §1

[16] = test system: C. freundii GC 4171 TEM-1 + InducibleAmpC; assay: MIC microbroth dilution; β-lactamase class A, C; assay type: cell-based
Experimental: as §1

[17] = test system: E. cloacae GC 7065 TEM-26, SHV-12 Amp C inducable; assay: MIC microbroth dilution; β-lactamase class A (ESBL), C; assay type: cell-based; settings: Enterobacter cloacae, Cefepime alone, read-out: MIC
Experimental: as §1

[18] = test system: E. cloacae GC 7052 SHV-5, Amp C inducable; assay: as above; assay type: cell-based; settings: Cefepime alone
Experimental: as §1

[19] = test system: E. aerogenes GC 7039 TEM-4, Amp C inducable; assay: as above; assay type: cell-based; settings: Klebsiella aerogenes, Cefepime alone, read-out: MIC
Experimental: as §1

[20] = test system: M. morganii GC 1617 TEM-10 + inducible AmpC; assay: as above; assay type: cell-based; settings: Cefepime alone
Experimental: as §1

[21] = test system: E. aerogenes GC 7036 TEM-24, Amp C inducable; assay: as above; assay type: cell-based; settings: Klebsiella aerogenes, Cefepime alone, read-out: MIC
Experimental: as §1

[22] = test system: E. coli GC 1499 (TEM-4 + TEM-1); assay: MIC microbroth dilution; β-lactamase class A, A (ESBL); assay type: cell-based; settings: Cefepime alone
Experimental: as §1

[23] = test system: E. coli GC 2015 (TEM-10 + SHV-1); assay: as above; assay type: cell-based; settings: Cefepime alone
Experimental: as §1

[24] = test system: E. coli GC 2146 (TEM-1; SHV-7); assay: as above; assay type: cell-based; settings: Cefepime alone
Experimental: as §1

[25] = test system: E. coli GC 6260 (TEM-1 + SHV-5); assay: as above; assay type: cell-based; settings: Cefepime alone
Experimental: as §1

[26] = test system: E. coli GC 1695 (TEM-1 + TEM-10); assay: as above; assay type: cell-based; settings: Cefepime alone
Experimental: as §1

[27] = test system: E. coli GC 5901 (TEM-1 and SHV-8); assay: as above; assay type: cell-based; settings: Cefepime alone
Experimental: as §1

[28] = Klebsiella pneumoniae, control of Compound 1 test, read-out: MIC
[29] = Escherichia coli, control of Compound 1 test, read-out: MIC

## CO/N=C(\C(=O)N[C@@H]1C(=O)N2C(C(=O)[O-])=C(C[N+]3(C)CCCC3)CS[C@H]12)c1csc(N)n1 [Cefepime, reference compound]
[1]; control of Compound 1 test
  MIC: 16 µg/mL (≈ 33.3 µM)
[1]; control of Compound 2 test
  MIC: 4 µg/mL (≈ 8.32 µM)
[2]; control of Compound 2 test
  MIC: >16 µg/mL
[2]; Stenotrophomonas maltophilia, control of Compound 1 test, read-out: MIC
  MIC: > 16 µg/mL
[3]; control of Compound 2 test
  MIC: >16 µg/mL
[3]; [28]
  MIC: > 16 µg/mL
[4]; control of Compound 2 test
  MIC: 2 µg/mL (≈ 4.16 µM)
[4]; [28]
  MIC: 2 µg/mL (≈ 4.16 µM)
[5]; control of Compound 2 test
  MIC: >16 µg/mL
[5]; [29]
  MIC: > 16 µg/mL
[6]; control of Compound 2 test
  MIC: 8 µg/mL (≈ 16.6 µM)
[6]; [28]
  MIC: 8 µg/mL (≈ 16.6 µM)
[7]; control of Compound 1 test
  MIC: 8 µg/mL (≈ 16.6 µM)
[7]; control of Compound 2 test
  MIC: 16 µg/mL (≈ 33.3 µM)
[8]; control of Compound 2 test
  MIC: >16 µg/mL
[8]; [28]
  MIC: > 16 µg/mL
[9]; Acinetobacter baumannii, GC6660IMIR, control of Compound 1 test, read-out: MIC
  MIC: > 16 µg/mL
[9]; control of Compound 2 test
  MIC: >16 µg/mL
[10]; Acinetobacter baumannii, GC6661IMIR, control of Compound 1 test, read-out: MIC
  MIC: > 16 µg/mL
[10]; control of Compound 2 test
  MIC: >16 µg/mL
[11]; Acinetobacter baumannii, GC6662IMIR, control of Compound 1 test, read-out: MIC
  MIC: > 16 µg/mL
[11]; control of Compound 2 test
  MIC: >16 µg/mL
[12]; control of Compound 1 test
  MIC: 2 µg/mL (≈ 4.16 µM)
[12]; control of Compound 2 test
  MIC: 4 µg/mL (≈ 8.32 µM)
E. coli GC 2920 (IRT-2); control of Compound 2 test
  MIC: 0.06 µg/mL (≈ 0.125 µM)
E. coli GC 2920 (IRT-2); [29]
  MIC: 0.06 µg/mL (≈ 0.125 µM)
[13]; control of Compound 2 test
  MIC: >16 µg/mL
[13]; [29]
  MIC: > 16 µg/mL
E. coli GC 1995 (TEM-10); control of Compound 1 test
  MIC: 8 µg/mL (≈ 16.6 µM)
E. coli GC 1995 (TEM-10); control of Compound 2 test
  MIC: 16 µg/mL (≈ 33.3 µM)
[14]; control of Compound 2 test
  MIC: >16 µg/mL
[14]; Salmonella enterica, control of Compound 1 test, read-out: MIC
  MIC: > 16 µg/mL
E. coli GC 2300 (TEM-28); control of Compound 2 test
  MIC: 16 µg/mL (≈ 33.3 µM)
E. coli GC 2300 (TEM-28); [29]
  MIC: 16 µg/mL (≈ 33.3 µM)
E. coli GC 2400 (TEM-43); control of Compound 2 test
  MIC: >16 µg/mL
E. coli GC 2400 (TEM-43); [29]
  MIC: > 16 µg/mL
E. coli GC 1684 (TEM-10); control of Compound 2 test
  MIC: >16 µg/mL
E. coli GC 1684 (TEM-10); [29]
  MIC: > 16 µg/mL
E. coli GC 6368 (SHV-7); control of Compound 1 test
  MIC: 1 µg/mL (≈ 2.08 µM)
E. coli GC 6368 (SHV-7); control of Compound 2 test
  MIC: 2 µg/mL (≈ 4.16 µM)
E. coli GC 2804 (imp); control of Compound 1 test
  MIC: 0.03 µg/mL (≈ 0.0624 µM)
E. coli GC 2804 (imp); control of Compound 2 test
  MIC: < 0.015 µg/mL
E. coli GC 2844 (none); control of Compound 2 test
  MIC: 0.06 µg/mL (≈ 0.125 µM)
E. coli GC 2844 (none); [29]
  MIC: 0.06 µg/mL (≈ 0.125 µM)
[15]; control of Compound 1 test
  MIC: 0.03 µg/mL (≈ 0.0624 µM)
[15]; control of Compound 2 test
  MIC: 0.06 µg/mL (≈ 0.125 µM)
[16]; C. freundii GC 4171, Cefepime alone, control of Compound 2 test
  MIC: 4 µg/mL (≈ 8.32 µM)
[16]; Citrobacter freundii
  MIC: 4 µg/mL (≈ 8.32 µM)
[17]; control of Compound 1 test
  MIC: 4 µg/mL (≈ 8.32 µM)
[17]; control of Compound 2 test
  MIC: 16 µg/mL (≈ 33.3 µM)
[18]; control of Compound 2 test
  MIC: 16 µg/mL (≈ 33.3 µM)
[18]; Enterobacter cloacae, control of Compound 1 test, read-out: MIC
  MIC: 16 µg/mL (≈ 33.3 µM)
[19]; control of Compound 1 test
  MIC: 16 µg/mL (≈ 33.3 µM)
[19]; control of Compound 2 test
  MIC: > 16 µg/mL
[20]; control of Compound 2 test
  MIC: 0.25 µg/mL (≈ 0.52 µM)
[20]; Morganella morganii, control of Compound 1 test, read-out: MIC
  MIC: 0.25 µg/mL (≈ 0.52 µM)
[21]; control of Compound 1 test
  MIC: 2 µg/mL (≈ 4.16 µM)
[21]; control of Compound 2 test
  MIC: 4 µg/mL (≈ 8.32 µM)
[22]; control of Compound 2 test
  MIC: >16 µg/mL
[22]; [29]
  MIC: > 16 µg/mL
[23]; control of Compound 2 test
  MIC: >16 µg/mL
[23]; [29]
  MIC: > 16 µg/mL
[24]; control of Compound 2 test
  MIC: >16 µg/mL
[24]; [29]
  MIC: > 16 µg/mL
[25]; control of Compound 2 test
  MIC: >16 µg/mL
[25]; [29]
  MIC: > 16 µg/mL
[26]; control of Compound 2 test
  MIC: >16 µg/mL
[26]; [29]
  MIC: > 16 µg/mL
[27]; control of Compound 2 test
  MIC: >16 µg/mL
[27]; [29]
  MIC: > 16 µg/mL
